Key:
Type in all cases: in vivo
[1] = test system: Spodoptera littoralis (Egyptian Cotton Leaf Worm); experiment: Example B10: Spodoptera littoralis, uptake by lettuce roots from agar; settings: 144 h, test rate of 12.5 ppm, eggs, 6 days after infestation, read-out: control in at least one of the three categories (mortality, anti-feedant, or growth inhibition)
Description: Test compounds were applied by pipette from 10′000 ppm DMSO stock solutions into 24-well plates and mixed with agar. Lettuce seeds were placed onto the agar and the multi well plate was closed by another plate which contained also agar. After 7 days the compound was absorbed by the roots and the lettuce grew into the lid plate. The lettuce leaves were then cut off into the lid plate. Spodoptera eggs were pipetted through a plastic stencil onto a humid gel blotting paper and the lid plate was closed with it. The samples were assessed for mortality, anti-feedant effect and growth inhibition in comparison to untreated samples 6 days after infestation.

[2] = test system: Plutella xylostella (Diamond Back Moth); experiment: Example B5: Plutella xylostella, artificial diet, 24-well; settings: 192 h, application rate of 200 ppm, eggs, 8 days after infestation, read-out: control in at least one of the two categories (mortality or growth inhibition)
Method: 24-well microtiter plates with artificial diet were treated with aqueous test solutions prepared from 10′000 ppm DMSO stock solutions by pipetting. After drying, Plutella eggs were pipetted through a plastic stencil onto a gel blotting paper and the plate was closed with it. The samples were assessed for mortality and growth inhibition in comparison to untreated samples 8 days after infestation.

[3] = test system: Chilo suppressalis (Striped Rice Stemborer); experiment: Example B4: Chilo suppressalis, artificial diet; settings: 144 h, application rate of 200 ppm, L2 larvae, 6 days after infestation, read-out: control in at least one of the three categories (mortality, anti-feedant effect, or growth inhibition)
Summary of the method: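 Artificial diet in wells was treated with aqueous test solutions diluted from 10'000 ppm DMSO stocks, dried, then infested with 6-8 L2 larvae per well. Mortality, anti-feeding effect and growth inhibition were scored against untreated samples 6 days after infestation; control means any category exceeds the untreated sample.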

[4] = test system: Spodoptera littoralis (Egyptian Cotton Leaf Worm); experiment: Example B9: Spodoptera littoralis, spray on cotton leaf discs; settings: foliar, 72 h, application rate of 200 ppm, L1 larvae, 3 days after infestation, read-out: control in at least one of the three categories (mortality, anti-feedant effect, or growth inhibition)
Summary of the method: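 Leaf discs on agar; spray, aqueous dilution of 10′000 ppm DMSO stock; dry; 5 L1 larvae/disc. Read at 3 d post-infestation: mortality, antifeedant, growth inhibition vs untreated. Control = ≥1 category above untreated.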

[5] = test system: Diabrotica Balteata (Corn Root Worm); experiment: Example B1: Diabrotica balteata, spray on maize sprouts; settings: 96 h, application rate of 200 ppm, L2 larvae, 4 days after infestation, read-out: control in at least one of the two categories (mortality or growth inhibition)
Summary of the method: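 Read-out is mortality plus growth inhibition relative to untreated controls, assessed 4 days after infestation. Sprouts resting on agar are sprayed with aqueous solutions derived from 10′000 ppm DMSO stocks and left to dry before L2 larvae (6 to 10 per well) are added.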

[6] = test system: Euschistus heros (Neotropical Brown Stink Bug); experiment: Example B2: Euschistus heros, spray on soybean leaves; settings: 120 h, application rate of 200 ppm, N2 nymphs, 5 days after infestation, read-out: control in at least one of the two categories (mortality or growth inhibition)
Method: Soybean leaves on agar in 24-well microtiter plates were sprayed with aqueous test solutions prepared from 10′000 ppm DMSO stock solutions. After drying the leaves were infested with N2 nymphs. The samples were assessed for mortality and growth inhibition in comparison to untreated samples 5 days after infestation.

[7] = test system: Plutella xylostella (Diamondback Moth); experiment: Example B13: Plutella xylostella, artificial diet, 96-well; settings: 216 h, application rate of 500 ppm, eggs/L1 larvae, 9 days after infestation
Method: 96-well microtiter plates containing artificial diet were treated with aqueous test solutions, prepared from 10′000 ppm DMSO stock solutions, by a liquid handling robot. After drying, eggs (˜30 per well) were infested onto a netted lid which was suspended above the diet. The eggs hatch and L1 larvae move down to the diet. The samples were assessed for mortality 9 days after infestation.

[8] = test system: Tetranychus urticae (Two-Spotted Spider Mite); experiment: Example B14: Tetranychus urticae, feeding/contact activity; settings: 192 h
Method: Bean leaf discs on agar in 24-well microtiter plates were sprayed with aqueous test solutions prepared from 10′000 ppm DMSO stock solutions. After drying the leaf discs were infested with a mite population of mixed ages. The samples were assessed for mortality on mixed population (mobile stages) 8 days after infestation.

[9] = test system: Myzus persicae (Green Peach Aphid); experiment: Example B12: Myzus persicae, sucrose solution, 96-well; settings: 120 h, application rate of 50 ppm, 5 days after infestation
Method: Test compounds prepared from 10′000 ppm DMSO stock solutions were applied by a liquid handling robot into 96-well microtiter plates and mixed with a sucrose solution. Parafilm was stretched over the 96-well microtiter plate and a plastic stencil with 96 holes was placed onto the plate. Aphids were sieved into the wells directly onto the Parafilm. The infested plates were closed with a gel blotting card and a second plastic stencil and then turned upside down. The samples were assessed for mortality 5 days after infestation.

[10] = test system: Myzus persicae (Green Peach Aphid); experiment: Example B6: Myzus persicae, feeding/contact activity; settings: 144 h, application rate of 200 ppm, mixed ages, 6 days after infestation
Method: Sunflower leaf discs were placed onto agar in a 24-well microtiter plate and sprayed with aqueous test solutions prepared from 10′000 ppm DMSO stock solutions. After drying, the leaf discs were infested with an aphid population of mixed ages. The samples were assessed for mortality 6 days after infestation.

CC(c1nc(Br)nn1-c1ccc(C#N)cn1)N(C)C(=O)c1cc(C(F)(F)F)cc(C(F)(F)F)c1 (centres unmarked) [Compound P12, N-[1-[5-bromo-2-(5-cyano-2-pyridyl)-1,2,4-triazol-3-yl]ethyl]-N-methyl-3,5-bis(trifluoromethyl) benzamide]
≥ 80%: percent control (mortality, anti-feedant effect or growth inhibition) at 12.5 ppm [1] | percent control (mortality or growth inhibition) at 200 ppm [2] | percent control (mortality, anti-feedant effect or growth inhibition) at 200 ppm [3] | percent control (mortality, anti-feedant effect or growth inhibition) at 200 ppm [4] | percent control (mortality or growth inhibition) at 200 ppm [5] | percent control (mortality or growth inhibition) at 200 ppm [6] | mortality at 500 ppm [7]

CC(NC(=O)c1cc(OC(F)F)cc(C(F)(F)F)c1)c1nc(Br)nn1-c1ccc(OCC(F)F)cn1 (centres unmarked) [Compound P16, N-[1-[5-bromo-2-[5-(2,2-difluoroethoxy)-2-pyridyl]-1,2,4-triazol-3-yl]ethyl]-3-(difluoromethoxy)-5-(trifluoromethyl) benzamide]
≥ 80%: percent control (mortality or growth inhibition) at 200 ppm [2] | percent control (mortality, anti-feedant effect or growth inhibition) at 200 ppm [3] | percent control (mortality, anti-feedant effect or growth inhibition) at 200 ppm [4] | percent control (mortality or growth inhibition) at 200 ppm [5] | mortality at 200 ppm [8] | mortality at 500 ppm [7]

CC(NC(=O)c1cc(OC(F)F)cc(C(F)(F)F)c1)c1nc(Br)nn1-c1ncc(OCC(F)F)cn1 (centres unmarked) [Compound P23, N-[1-[5-bromo-2-[5-(2,2-difluoroethoxy)pyrimidin-2-yl]-1,2,4-triazol-3-yl]ethyl]-3-(difluoromethoxy)-5-(trifluoromethyl)be nzamide]
≥ 80%: percent control (mortality or growth inhibition) at 200 ppm [2] | percent control (mortality, anti-feedant effect or growth inhibition) at 200 ppm [3] | percent control (mortality, anti-feedant effect or growth inhibition) at 200 ppm [4] | percent control (mortality or growth inhibition) at 200 ppm [5] | mortality at 50 ppm [9] | mortality at 500 ppm [7]

CC(NC(=O)c1cc(Br)cc(C(F)(F)F)c1)c1nc(Br)nn1-c1ccc(OCC(F)F)cn1 (centres unmarked) [Compound P35, 3-bromo-N-[1-[5-bromo-2-[5-(2,2-difluoroethoxy)-2-pyridyl]-1,2,4-triazol-3-yl]ethyl]-5-(trifluoromethyl) benzamide]
≥ 80%: percent control (mortality or growth inhibition) at 200 ppm [2] | mortality at 200 ppm [10] | percent control (mortality, anti-feedant effect or growth inhibition) at 200 ppm [3] | percent control (mortality, anti-feedant effect or growth inhibition) at 200 ppm [4] | percent control (mortality or growth inhibition) at 200 ppm [5] | mortality at 500 ppm [7]

CC(NC(=O)c1cc(C(F)F)cc(C(F)(F)F)c1)c1nc(Br)nn1-c1ncc(OCC(F)F)cn1 (centres unmarked) [Compound P40, N-[1-[5-bromo-2-[5-(2,2-difluoroethoxy)pyrimidin-2-yl]-1,2,4-triazol-3-yl]ethyl]-3-(difluoromethyl)-5-(trifluoromethyl) benzamide]
≥ 80%: percent control (mortality or growth inhibition) at 200 ppm [2] | percent control (mortality, anti-feedant effect or growth inhibition) at 200 ppm [3] | percent control (mortality, anti-feedant effect or growth inhibition) at 200 ppm [4] | percent control (mortality or growth inhibition) at 200 ppm [5] | percent control (mortality or growth inhibition) at 200 ppm [6] | mortality at 500 ppm [7]

CC(NC(=O)c1cc(Cl)cc(C(F)(F)F)c1)c1nc(Br)nn1-c1ncc(OCC(F)(F)F)cn1 (centres unmarked) [Compound P43, N-[1-[5-bromo-2-[5-(2,2,2-trifluoroethoxy)pyrimidin-2-yl]-1,2,4-triazol-3-yl]ethyl]-3-chloro-5-(trifluoromethyl) benzamide]
≥ 80%: percent control (mortality or growth inhibition) at 200 ppm [2] | percent control (mortality, anti-feedant effect or growth inhibition) at 200 ppm [3] | percent control (mortality, anti-feedant effect or growth inhibition) at 200 ppm [4] | percent control (mortality or growth inhibition) at 200 ppm [5] | mortality at 50 ppm [9] | mortality at 500 ppm [7]

CC(NC(=O)c1cc(OCC(F)F)cc(C(F)(F)F)c1)c1nc(Br)nn1-c1ncc(OCC(F)F)cn1 (centres unmarked) [Compound P47, N-[1-[5-bromo-2-[5-(2,2-difluoroethoxy)pyrimidin-2-yl]-1,2,4-triazol-3-yl]ethyl]-3-(2,2-difluoroethoxy)-5-(trifluoromethyl) benzamide]
≥ 80%: percent control (mortality or growth inhibition) at 200 ppm [2] | percent control (mortality, anti-feedant effect or growth inhibition) at 200 ppm [3] | percent control (mortality, anti-feedant effect or growth inhibition) at 200 ppm [4] | mortality at 50 ppm [9] | mortality at 500 ppm [7]

CC(NC(=O)c1cc(C(F)F)cc(C(F)(F)F)c1)c1nc(Br)nn1-c1ccc(OCC(F)F)cn1 (centres unmarked) [Compound P52, N-[1-[5-bromo-2-[5-(2,2-difluoroethoxy)-2-pyridyl]-1,2,4-triazol-3-yl]ethyl]-3-(difluoromethyl)-5-(trifluoromethyl) benzamide]
≥ 80%: percent control (mortality or growth inhibition) at 200 ppm [2] | percent control (mortality, anti-feedant effect or growth inhibition) at 200 ppm [3] | percent control (mortality, anti-feedant effect or growth inhibition) at 200 ppm [4] | percent control (mortality or growth inhibition) at 200 ppm [5] | percent control (mortality or growth inhibition) at 200 ppm [6] | mortality at 500 ppm [7]

CC(NC(=O)c1cc(OCC(F)F)cc(C(F)(F)F)c1)c1nc(Br)nn1-c1ccc(OCC(F)(F)F)cn1 (centres unmarked) [Compound P55, N-[1-[5-bromo-2-[5-(2,2,2-trifluoroethoxy)-2-pyridyl]-1,2,4-triazol-3-yl]ethyl]-3-(2,2-difluoroethoxy)-5-(trifluoromethyl) benzamide]
≥ 80%: percent control (mortality or growth inhibition) at 200 ppm [2] | mortality at 200 ppm [10]

Reference: patent US12552766B2, “Pesticidally active azole amide compounds” (SYNGENTA CROP PROTECTION AG, priority 2019, dated 2026)
